Here are results for two sequences from US7794964B2, “Biochip for the detection of phosphorylation and the detection method using the same” (Korea Atomic Energy Research Institute, priority 2008, dated 2010).

One assay has as its system PKC (Protein Kinase C). Description: Phosphorylation of PKC substrate on biochip using [γ-32P]ATP. The format is biochemical. To be noted: 0.3 mg/ml substrate on aldehyde treated slide glass; 10 unit/ml PKC; 0.1 μCi/μl [γ-32P]ATP; BSA negative control. The procedure: (§1) To fix substrate on the aldehyde-treated slide glass (Nuricell Inc., Korea), 0.1 mg/ml of the Mep45-kinase substrate fusion protein or 1.25 μg/ml of peptide substrate (Promega, Madison, Wis.) was integrated. Particularly, the recombinant Mep45-kinase substrate fusion protein solution (10% glycerol, PBS, pH 7.5) was prepared at the concentration of 0.1 mg/ml, and this substrate solution was integrated on the aldehyde-treated slide glass at the spot intervals of 300 μm by using microarray device (Genetix Ltd, UK). The size of the spot was regulated to be 300 μm. The integrated biochip was reacted in a humid chamber at room temperature for one hour, leading to fixation.
(§2) The biochip constructed in Example 2 was washed three times with PBS (200 mM NaCl, 3 mM KCl, 2 mM KH2PO4, 1 mM Na2HPO4, pH 7.5), followed by reaction of the kinase and substrate on the chip. Particularly, the chip was washed with kinase buffer (40 mM Tris-HCl, 20 mM MgCl2, 0.1 mg/ml BSA, pH 7.5) once. […]
0.3 mg/ml of AAKIQASFRGHMARKK (SEQ. ID. NO: 1) and Mep45 fusion substrate were integrated on the aldehyde treated slide glass, followed by phosphorylation using 10 unit/ml of PKC and 0.1 μCi/μl of [γ-^32P]ATP. Phosphorylation was measured by using X-ray film or X-ray fluorescence spectrometer. […]

In another assay the target is cdc2 protein kinase (Homo sapiens, UniProt P06493). Description: Phosphorylation of cdc2 protein kinase substrate on biochip using [γ-32P]ATP. Format: biochemical. The conditions noted are these: 1.0 mg/ml substrate on aldehyde treated slide glass; 10 unit/ml cdc2 protein kinase; 0.1 μCi/μl [γ-32P]ATP; BSA negative control. The procedure:
as §1, §2
1.0 mg/ml of PKTPKKAKKL (SEQ. ID. NO: 2) and Mep45 fusion substrate were integrated on the aldehyde treated slide glass, followed by phosphorylation using 10 unit/ml of cdc2 protein kinase and 0.1 μCi/μl of [γ-^32P]ATP. Phosphorylation was measured by using X-ray film or X-ray fluorescence spectrometer. […]

Sequence of cdc2 protein kinase (P06493 whole entry): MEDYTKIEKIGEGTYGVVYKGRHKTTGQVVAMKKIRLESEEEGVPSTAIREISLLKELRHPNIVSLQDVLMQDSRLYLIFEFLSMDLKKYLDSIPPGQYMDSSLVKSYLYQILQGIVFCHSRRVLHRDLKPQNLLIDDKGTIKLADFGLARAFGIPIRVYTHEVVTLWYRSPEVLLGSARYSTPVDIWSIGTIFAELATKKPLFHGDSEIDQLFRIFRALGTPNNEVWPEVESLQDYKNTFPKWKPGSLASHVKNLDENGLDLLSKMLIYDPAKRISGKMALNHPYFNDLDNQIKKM
Sequence of cdc2 protein kinase (P14635 whole entry partner): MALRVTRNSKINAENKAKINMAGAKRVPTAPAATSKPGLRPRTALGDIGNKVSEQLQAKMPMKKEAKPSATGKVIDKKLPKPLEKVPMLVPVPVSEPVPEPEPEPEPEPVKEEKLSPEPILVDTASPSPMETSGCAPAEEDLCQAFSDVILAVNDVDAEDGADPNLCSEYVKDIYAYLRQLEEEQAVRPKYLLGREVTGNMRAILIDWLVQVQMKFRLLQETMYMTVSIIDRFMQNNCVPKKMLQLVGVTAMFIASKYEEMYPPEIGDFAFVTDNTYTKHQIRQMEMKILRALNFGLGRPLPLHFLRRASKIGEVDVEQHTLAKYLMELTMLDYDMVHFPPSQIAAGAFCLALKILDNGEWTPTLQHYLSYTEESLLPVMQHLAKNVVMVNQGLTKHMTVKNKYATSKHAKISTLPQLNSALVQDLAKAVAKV

With “AAKIQASFRGHMARKK (Protein Kinase C substrate) [peptide substrate for PKC (Protein Kinase C)]”, the “phosphorylation signal on the spot (X-ray film or X-ray fluorescence spectrometer)” value in the assay with PKC (Protein Kinase C) is “clear signal was detected”. Consider “PKTPKKAKKL (cdc2 Protein Kinase substrate) [peptide substrate for cdc2-PK (cdc2 Protein Kinase)]”, for which the “phosphorylation signal on the spot (X-ray film or X-ray fluorescence spectrometer)” value with cdc2 protein kinase is “clear signal was detected”.
